Source: ChEMBL document CHEMBL1201862, “PubChem BioAssay data set” (2004)
Each block holds one compound with its values, some of them ahead of it. Active and inactive are the calls of the source.

Tests used:
Format in all cases: functional
[1] = target: MAP kinase-activated protein kinase 3 (Homo sapiens, UniProt Q16644);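 note: value comes from a kinome-wide profiling panel in which MAPKAPK3 is one of the panel members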
[2] = target: Serine/threonine-protein kinase PLK3 (Homo sapiens, UniProt Q9H4B4)
[3] = target: Non-receptor tyrosine-protein kinase TYK2 (Homo sapiens, UniProt P29597)
[4] = target: RAC-alpha serine/threonine-protein kinase (Homo sapiens, UniProt P31749);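 note: AKT1 affinity measured as one member of a kinome-wide kinase profiling panel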
[5] = target: Casein kinase I isoform delta (Homo sapiens, UniProt P48730);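 note: measured as one member (CSNK1D) of a kinome panel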
[6] = target: Inhibitor of nuclear factor kappa-B kinase subunit alpha (Homo sapiens, UniProt O15111)
[7] = target: Receptor tyrosine-protein kinase erbB-2 (Homo sapiens, UniProt P04626); assay: Navigating the Kinome. Panel member name: ERBB2
[8] = target: Tyrosine-protein kinase ITK/TSK (Homo sapiens, UniProt Q08881);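 note: affinity for ITK measured as one member of a broad kinase panel profiling binding across the kinome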
[9] = target: Protein kinase C gamma type (Homo sapiens, UniProt P05129)
[10] = target: Tyrosine-protein kinase Lyn (Homo sapiens, UniProt P07948);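 note: lyn as one member of a kinase panel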
[11] = target: Rho-associated protein kinase 2 (Homo sapiens, UniProt O75116)
[12] = target: Ribosomal protein S6 kinase beta-1 (Homo sapiens, UniProt P23443);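 note: measured as one member of a kinome-wide profiling panel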
[13] = target: Inhibitor of nuclear factor kappa-B kinase subunit beta (Homo sapiens, UniProt O14920)
[14] = target: Serine/threonine-protein kinase pim-2 (Homo sapiens, UniProt Q9P1W9);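 note: value comes from a broad kinase panel profiling study in which PIM2 was one of the panel members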
[15] = target: Receptor tyrosine-protein kinase erbB-4 (Homo sapiens, UniProt Q15303);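 note: ERBB4 member of a kinome-wide kinase profiling panel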
[16] = target: Hepatocyte growth factor receptor (Homo sapiens, UniProt P08581);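 note: kinase panel profiling across the kinome, with MET as the panel member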
[17] = target: Platelet-derived growth factor receptor beta (Homo sapiens, UniProt P09619);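 note: value comes from a kinome panel, with PDGFRB tested as one panel member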
[18] = target: cAMP-dependent protein kinase catalytic subunit PRKX (Homo sapiens, UniProt P51817)
[19] = target: Leukocyte tyrosine kinase receptor (Homo sapiens, UniProt P29376); assay: Navigating the Kinome. Panel member name: LTK
[20] = target: Mitogen-activated protein kinase 14 (Homo sapiens, UniProt Q16539);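 note: part of a kinome-wide panel, MAPK14 entry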
[21] = target: Serine/threonine-protein kinase D3 (Homo sapiens, UniProt O94806);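 note: determined within a kinase panel screen, with PRKCN as the panel member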
[22] = target: Serine/threonine-protein kinase TBK1 (Homo sapiens, UniProt Q9UHD2); assay: Navigating the Kinome. Panel member name: TBK1
[23] = target: Calcium/calmodulin-dependent protein kinase type II subunit alpha (Homo sapiens, UniProt Q9UQM7); assay: Navigating the Kinome. Panel member name: CAMK2A
[24] = target: Dual specificity mitogen-activated protein kinase kinase 1 (Homo sapiens, UniProt Q02750); assay: Navigating the Kinome. Panel member name: MAP2K1
[25] = target: Dual specificity protein kinase CLK2 (Homo sapiens, UniProt P49760)
[26] = target: Cyclin-dependent kinase 8 (Homo sapiens, UniProt P49336); assay: Navigating the Kinome. Panel member name: CDK8
[27] = target: Dual specificity mitogen-activated protein kinase kinase 2 (Homo sapiens, UniProt P36507); assay: Navigating the Kinome. Panel member name: MAP2K2
[28] = target: Inhibitor of nuclear factor kappa-B kinase subunit epsilon (Homo sapiens, UniProt Q14164); assay: Navigating the Kinome. Panel member name: IKBKE
[29] = target: Tyrosine-protein kinase BTK (Homo sapiens, UniProt Q06187)

Chain of Inhibitor of nuclear factor kappa-B kinase subunit alpha (O15111 whole entry): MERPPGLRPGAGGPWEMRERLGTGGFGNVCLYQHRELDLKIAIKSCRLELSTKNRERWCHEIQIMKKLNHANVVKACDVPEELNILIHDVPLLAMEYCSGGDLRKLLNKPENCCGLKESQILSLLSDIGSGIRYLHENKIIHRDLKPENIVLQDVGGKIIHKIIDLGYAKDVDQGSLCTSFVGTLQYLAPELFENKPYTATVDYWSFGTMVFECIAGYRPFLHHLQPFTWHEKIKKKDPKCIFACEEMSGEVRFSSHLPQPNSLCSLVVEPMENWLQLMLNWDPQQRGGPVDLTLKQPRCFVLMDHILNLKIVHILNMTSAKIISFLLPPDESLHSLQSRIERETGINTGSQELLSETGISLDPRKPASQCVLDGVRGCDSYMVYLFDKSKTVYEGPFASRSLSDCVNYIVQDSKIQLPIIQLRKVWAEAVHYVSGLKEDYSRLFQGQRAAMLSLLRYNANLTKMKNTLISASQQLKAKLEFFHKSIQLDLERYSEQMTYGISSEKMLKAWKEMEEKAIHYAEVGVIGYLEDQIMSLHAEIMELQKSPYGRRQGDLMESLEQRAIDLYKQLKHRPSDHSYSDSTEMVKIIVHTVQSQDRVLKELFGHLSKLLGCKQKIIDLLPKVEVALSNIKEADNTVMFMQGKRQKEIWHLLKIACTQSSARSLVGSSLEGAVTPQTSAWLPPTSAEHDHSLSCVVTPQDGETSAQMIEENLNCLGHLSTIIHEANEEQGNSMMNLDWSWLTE
Chain of Receptor tyrosine-protein kinase erbB-4 (Q15303 whole entry): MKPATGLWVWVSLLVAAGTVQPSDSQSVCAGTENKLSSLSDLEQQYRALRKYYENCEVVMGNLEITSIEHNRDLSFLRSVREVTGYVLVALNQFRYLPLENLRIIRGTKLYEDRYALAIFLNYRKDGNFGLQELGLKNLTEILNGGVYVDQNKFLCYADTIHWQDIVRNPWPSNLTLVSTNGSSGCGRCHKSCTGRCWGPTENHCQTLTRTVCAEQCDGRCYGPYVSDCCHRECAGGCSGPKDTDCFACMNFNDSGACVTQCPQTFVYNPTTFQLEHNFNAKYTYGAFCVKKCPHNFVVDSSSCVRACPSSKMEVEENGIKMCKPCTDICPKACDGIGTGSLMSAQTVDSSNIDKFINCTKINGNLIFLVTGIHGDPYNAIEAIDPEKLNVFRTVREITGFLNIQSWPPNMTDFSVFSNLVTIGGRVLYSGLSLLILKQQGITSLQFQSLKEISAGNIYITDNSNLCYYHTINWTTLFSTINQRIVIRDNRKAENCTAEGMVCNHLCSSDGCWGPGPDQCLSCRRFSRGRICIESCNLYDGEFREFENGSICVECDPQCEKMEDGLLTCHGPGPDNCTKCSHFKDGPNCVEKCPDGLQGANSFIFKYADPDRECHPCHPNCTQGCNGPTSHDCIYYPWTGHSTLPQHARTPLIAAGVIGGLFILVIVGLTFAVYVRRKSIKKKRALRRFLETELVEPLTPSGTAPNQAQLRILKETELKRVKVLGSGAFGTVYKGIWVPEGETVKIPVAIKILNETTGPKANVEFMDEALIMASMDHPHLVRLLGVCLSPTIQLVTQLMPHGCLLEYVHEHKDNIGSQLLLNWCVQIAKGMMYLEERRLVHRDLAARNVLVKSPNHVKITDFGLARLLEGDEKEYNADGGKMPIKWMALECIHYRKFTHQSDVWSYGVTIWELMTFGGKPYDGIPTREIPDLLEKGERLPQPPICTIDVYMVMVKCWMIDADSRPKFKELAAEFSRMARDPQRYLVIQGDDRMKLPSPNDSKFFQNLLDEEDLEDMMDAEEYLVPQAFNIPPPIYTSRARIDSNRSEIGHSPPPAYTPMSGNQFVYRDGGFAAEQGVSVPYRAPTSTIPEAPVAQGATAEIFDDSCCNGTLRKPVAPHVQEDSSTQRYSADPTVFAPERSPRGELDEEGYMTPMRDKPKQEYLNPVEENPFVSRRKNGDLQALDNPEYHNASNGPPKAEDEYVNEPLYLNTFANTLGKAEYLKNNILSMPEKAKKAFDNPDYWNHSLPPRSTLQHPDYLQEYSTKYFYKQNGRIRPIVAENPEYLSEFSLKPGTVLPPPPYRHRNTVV
Chain of Mitogen-activated protein kinase 14 (Q16539 whole entry): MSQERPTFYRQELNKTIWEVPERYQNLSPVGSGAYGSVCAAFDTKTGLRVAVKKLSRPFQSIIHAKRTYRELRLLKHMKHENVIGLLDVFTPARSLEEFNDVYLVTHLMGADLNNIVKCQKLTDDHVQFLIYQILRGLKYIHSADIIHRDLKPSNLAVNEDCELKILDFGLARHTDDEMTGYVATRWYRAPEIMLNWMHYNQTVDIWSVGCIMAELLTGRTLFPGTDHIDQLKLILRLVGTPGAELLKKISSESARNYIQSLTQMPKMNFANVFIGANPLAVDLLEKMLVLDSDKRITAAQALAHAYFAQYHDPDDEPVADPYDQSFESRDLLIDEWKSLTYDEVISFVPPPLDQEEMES
Chain of Receptor tyrosine-protein kinase erbB-2 (P04626 whole entry): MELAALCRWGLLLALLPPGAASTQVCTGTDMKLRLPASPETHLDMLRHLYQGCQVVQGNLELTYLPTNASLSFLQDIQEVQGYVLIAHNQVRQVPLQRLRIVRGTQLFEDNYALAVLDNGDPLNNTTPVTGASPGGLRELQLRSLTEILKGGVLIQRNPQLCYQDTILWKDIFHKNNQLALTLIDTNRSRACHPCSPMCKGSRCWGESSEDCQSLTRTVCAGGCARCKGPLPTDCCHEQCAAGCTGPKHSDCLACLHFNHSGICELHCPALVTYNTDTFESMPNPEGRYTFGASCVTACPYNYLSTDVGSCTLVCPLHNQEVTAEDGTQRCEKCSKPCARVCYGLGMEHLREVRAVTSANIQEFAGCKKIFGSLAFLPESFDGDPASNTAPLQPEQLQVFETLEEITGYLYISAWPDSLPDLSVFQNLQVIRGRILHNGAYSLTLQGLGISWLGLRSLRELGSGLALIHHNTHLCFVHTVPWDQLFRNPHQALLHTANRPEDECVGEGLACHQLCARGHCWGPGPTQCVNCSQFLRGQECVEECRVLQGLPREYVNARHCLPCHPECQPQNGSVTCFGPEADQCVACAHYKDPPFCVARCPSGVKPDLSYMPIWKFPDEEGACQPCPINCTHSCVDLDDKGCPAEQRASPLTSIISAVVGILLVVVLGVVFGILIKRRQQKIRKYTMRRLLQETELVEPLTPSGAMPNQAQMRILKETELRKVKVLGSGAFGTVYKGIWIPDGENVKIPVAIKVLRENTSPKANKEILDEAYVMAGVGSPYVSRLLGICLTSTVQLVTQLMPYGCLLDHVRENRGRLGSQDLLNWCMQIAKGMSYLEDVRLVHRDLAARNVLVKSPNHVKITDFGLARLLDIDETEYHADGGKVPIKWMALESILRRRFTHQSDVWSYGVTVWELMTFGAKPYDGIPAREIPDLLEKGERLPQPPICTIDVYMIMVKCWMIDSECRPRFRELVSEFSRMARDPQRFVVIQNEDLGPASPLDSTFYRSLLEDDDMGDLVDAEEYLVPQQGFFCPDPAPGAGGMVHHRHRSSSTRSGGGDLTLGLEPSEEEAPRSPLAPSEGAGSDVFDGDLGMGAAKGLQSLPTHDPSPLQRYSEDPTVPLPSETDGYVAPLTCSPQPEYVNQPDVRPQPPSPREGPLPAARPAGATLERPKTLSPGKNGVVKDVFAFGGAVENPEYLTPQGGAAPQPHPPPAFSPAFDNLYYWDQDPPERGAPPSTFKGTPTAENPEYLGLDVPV
Chain of RAC-alpha serine/threonine-protein kinase (P31749 whole entry, canonical isoform): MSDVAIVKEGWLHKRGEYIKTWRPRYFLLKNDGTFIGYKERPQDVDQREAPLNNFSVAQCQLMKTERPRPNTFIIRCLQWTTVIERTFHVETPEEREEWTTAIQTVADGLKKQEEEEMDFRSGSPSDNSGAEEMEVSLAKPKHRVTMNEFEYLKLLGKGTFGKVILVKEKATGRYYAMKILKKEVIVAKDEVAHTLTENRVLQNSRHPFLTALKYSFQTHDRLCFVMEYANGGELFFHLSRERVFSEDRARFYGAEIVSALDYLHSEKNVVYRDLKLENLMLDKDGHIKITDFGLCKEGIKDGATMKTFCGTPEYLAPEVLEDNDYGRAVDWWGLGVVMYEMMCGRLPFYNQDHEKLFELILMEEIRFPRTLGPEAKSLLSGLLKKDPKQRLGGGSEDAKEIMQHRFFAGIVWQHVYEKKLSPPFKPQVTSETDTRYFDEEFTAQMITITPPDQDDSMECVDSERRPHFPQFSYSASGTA
Chain of Dual specificity mitogen-activated protein kinase kinase 1 (Q02750 whole entry): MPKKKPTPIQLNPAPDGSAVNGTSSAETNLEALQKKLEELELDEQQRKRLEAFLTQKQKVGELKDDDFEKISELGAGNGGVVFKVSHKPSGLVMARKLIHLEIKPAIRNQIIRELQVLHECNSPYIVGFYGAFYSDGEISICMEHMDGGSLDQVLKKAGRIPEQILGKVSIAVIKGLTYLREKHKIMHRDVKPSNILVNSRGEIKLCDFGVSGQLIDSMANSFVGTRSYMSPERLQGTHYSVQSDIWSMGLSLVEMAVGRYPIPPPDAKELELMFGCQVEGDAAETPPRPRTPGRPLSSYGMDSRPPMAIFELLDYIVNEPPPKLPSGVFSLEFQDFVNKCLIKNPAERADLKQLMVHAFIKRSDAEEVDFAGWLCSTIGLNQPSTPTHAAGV
Chain of Serine/threonine-protein kinase pim-2 (Q9P1W9 whole entry): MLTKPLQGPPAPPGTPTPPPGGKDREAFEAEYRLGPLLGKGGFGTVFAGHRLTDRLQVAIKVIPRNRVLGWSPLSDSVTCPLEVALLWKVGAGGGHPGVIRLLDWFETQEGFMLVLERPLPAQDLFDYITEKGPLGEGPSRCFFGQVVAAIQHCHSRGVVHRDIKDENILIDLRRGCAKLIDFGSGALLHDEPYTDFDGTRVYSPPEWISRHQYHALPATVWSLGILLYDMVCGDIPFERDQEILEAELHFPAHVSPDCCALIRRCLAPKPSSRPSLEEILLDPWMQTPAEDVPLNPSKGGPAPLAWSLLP

Structure (SMILES): NC(COc1cncc(-c2cc3ccncc3s2)c1)Cc1c[nH]c2ccccc12 (centres undefined)
- Ki [1]: > 10000 nM (inactive)
- Ki [2]: 794 nM (active)
- Ki [3]: > 2000 nM (inactive)
- Ki [4]: 12.6 nM (active)
- Ki [5]: 794 nM (active)
- Ki [6]: > 3980 nM (inactive)
- Ki [7]: > 1580 nM (inactive)
- Ki [8]: > 1580 nM (inactive)
- Ki [9]: 398 nM (active)
- Ki [10]: > 1580 nM (inactive)
- Ki [11]: 10 nM (active)
- Ki [12]: 6.31 nM (active)
- Ki [13]: > 3160 nM (inactive)
- Ki [14]: > 1580 nM (inactive)
- Ki [15]: > 3980 nM (inactive)
- Ki [16]: > 3160 nM (inactive)

- Ki [17]: 1000 nM (active)
- Ki [18]: 25.1 nM (active)
- Ki [19]: 501 nM (active)
- Ki [20]: > 3980 nM (inactive)
- Ki [21]: 15.8 nM (active)
- Ki [22]: 2000 nM (active)
- Ki [23]: 398 nM (active)
- Ki [24]: 200 nM (active)
- Ki [25]: 39.8 nM (active)
- Ki [26]: 15.8 nM (active)
- Ki [27]: 316 nM (active)
- Ki [28]: 2510 nM (active)
- Ki [29]: > 6310 nM (inactive)
Structure (SMILES): CN(C)C1CCC(Nc2nc(Cl)cc(-c3c[nH]c4ncccc34)n2)CC1 (centres undefined)
